The target of the test is H3 receptor (Rattus norvegicus, UniProt Q9QYN8). Kind of test: H3 receptor binding, (3H)-N-α-methylhistamine displacement in rat cortical membranes. The settings on record: male Sprague-Dawley rat brain cortical membranes, 30 minutes at 25° C., Cheng-Prusoff, geometric mean values of 2-10 separate experiments. On the procedure:
Briefly, male Sprague-Dawley rat brain cortices were homogenized (1 g tissue/10 mL buffer) in 50 mM Tris-HCl/5 mM EDTA containing protease inhibitor cocktail (Calbiochem) using a polytron set at 20,500 rpm. Homogenates were centrifuged for 20 minutes at 40,000×g. The supernatant was decanted, and pellets were weighed. The pellet was resuspended by polytron homogenization in 40 mL 50 mM Tris-HCl/5 mM EDTA with protease inhibitors and centrifuged for 20 minutes at 40,000×g. […] Test compounds were added to the incubation mixtures prior to initiating the incubation assay by addition of the membranes. Thioperamide (3 μM) was used to determine nonspecific binding. Binding incubations were conducted for 30 minutes at 25° C. and terminated by addition of 2 mL of ice cold 50 mM Tris-HCl (H 7.7) and filtration through 0.3% polyethylenimine-soaked Unifilter plates (Packard). These filters were washed 4 additional times with 2 mL of ice-cold 50 mM Tris-HCl and dried for 1 hour. Radioactivity was determined using liquid scintillation counting techniques. Results were analyzed by Hill transformation and Ki values were determined using the Cheng-Prusoff equation.
Sequence of H3 receptor (Q9QYN8 1-397 isoform Q9QYN8-3): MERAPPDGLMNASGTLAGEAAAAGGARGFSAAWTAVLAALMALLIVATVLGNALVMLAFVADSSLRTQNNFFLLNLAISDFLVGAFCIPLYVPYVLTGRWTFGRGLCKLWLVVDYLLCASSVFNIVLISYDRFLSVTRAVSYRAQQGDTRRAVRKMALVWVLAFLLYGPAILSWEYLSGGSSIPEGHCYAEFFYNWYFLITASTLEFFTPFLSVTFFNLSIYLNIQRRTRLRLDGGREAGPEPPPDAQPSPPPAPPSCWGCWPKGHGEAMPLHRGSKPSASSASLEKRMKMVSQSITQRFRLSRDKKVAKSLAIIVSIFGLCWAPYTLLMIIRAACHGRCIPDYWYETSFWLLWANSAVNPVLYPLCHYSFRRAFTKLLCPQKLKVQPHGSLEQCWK
For the compound `N#Cc1ccc(-c2ccc(OCCCN3CCCN(C(=O)[C@@H](Cc4cscn4)NC(=O)c4ccco4)CC3)cc2)cc1` [Example 137, N-((1R)-2-(4-(3-((4′-cyano(1,1′-biphenyl)-4-yl)oxy)propyl)-1,4-diazepan-1-yl)-2-oxo-1-(1,3-thiazol-4-ylmethyl)ethyl)-2-furamide], the Ki (usually a dissociation constant, usually derived from enzyme kinetics or from competition with a known ligand) came to 0.208 nM.
Take `C[C@@H](NC(=O)c1ccc(Cl)cc1)C(=O)N1CCCN(CCCOc2ccc(-c3noc(CC4CCCC4)n3)c(F)c2)CC1` [Example 178, 4-chloro-N-{(1R)-2-[4-(3-{4-[5-(cyclopentylmethyl)-1,2,4-oxadiazol-3-yl]-3-fluorophenoxy}propyl)-1,4-diazepan-1-yl]-1-methyl-2-oxoethyl}benzamide]: the Ki is 8.2 nM.
`CC(C)CC(=O)N[C@H](C)C(=O)N1CCN(CCCOc2ccc(-c3noc(-c4ccccc4)n3)c(F)c2)CC1` [Example 165, N-[(1R)-2-(4-{3-[3-fluoro-4-(5-phenyl-1,2,4-oxadiazol-3-yl)phenoxy]propyl}-1-piperazinyl)-1-methyl-2-oxoethyl]-3-methylbutanamide] yielded a Ki of 11 nM.
Compound `C[C@@H](N)C(=O)N1CCCN(CCCOc2ccc(-c3noc(CC4CCCC4)n3)c(F)c2)CC1` [Example 169, (2R)-1-[4-(3-{4-[5-(cyclopentylmethyl)-1,2,4-oxadiazol-3-yl]-3-fluorophenoxy}propyl)-1,4-diazepan-1-yl]-1-oxo-2-propanamine] registered a Ki of 5.63 nM.
The compound `C[C@@H](NC(=O)c1ccno1)C(=O)N1CCN(CCCOc2ccc(-c3noc(-c4ccccc4)n3)c(F)c2)CC1` [Example 162, N-[(1R)-2-(4-{3-[3-fluoro-4-(5-phenyl-1,2,4-oxadiazol-3-yl)phenoxy]propyl}-1-piperazinyl)-1-methyl-2-oxoethyl]-5-isoxazolecarboxamide] showed a Ki of 13 nM.
As to `N[C@H](COCc1ccccc1)C(=O)N1CCN(CCCOc2ccc(C(=O)C3CC3)cc2)CC1` [Example 75, (4-(3-(4-((2R)-2-amino-3-(benzyloxy)propanoyl)-1-piperazinyl)propoxy)phenyl)(cyclopropyl)methanone], the Ki came out at 4.67 nM.
Turning to `C[C@@H](NC(=O)CCN1CCOCC1)C(=O)N1CCN(CCCOc2ccc(-c3noc(-c4ccccc4)n3)c(F)c2)CC1` [Example 164, N-[(1R)-2-(4-{3-[3-fluoro-4-(5-phenyl-1,2,4-oxadiazol-3-yl)-phenoxy]propyl}-1-piperazinyl)-1-methyl-2-oxoethyl]-3-(4-morpholinyl)propanamide], the Ki came to 6.37 nM.
Compound `C[C@@H](NC(=O)c1ccc(C(=O)O)cc1)C(=O)N1CCN(CCCOc2ccc(-c3noc(CC4CCCC4)n3)c(F)c2)CC1` [Example 186, 4-[({(1R)-2-[4-(3-{4-[5-(cyclopentylmethyl)-1,2,4-oxadiazol-3-yl]-3-fluorophenoxy}propyl)-1-piperazinyl]-1-methyl-2-oxoethyl}amino)carbonyl]benzoic acid] yielded a Ki of 8.82 nM.
Turning to `Cc1ccccc1C(=O)N[C@H](C)C(=O)N1CCN(CCCOc2ccc(C(=O)C3CC3)cc2)CC1` [Example 192, N-[(1R)-2-(4-{3-[4-(cyclopropylcarbonyl)phenoxy]propyl}-1-piperazinyl)-1-methyl-2-oxoethyl]-2-methylbenzamide], the Ki worked out at 1 nM.
`C[C@@H](NC(=O)c1cccs1)C(=O)N1CCN(CCCOc2ccc(-c3noc(-c4ccccc4)n3)c(F)c2)CC1` [Example 159, N-[(1R)-2-(4-{3-[3-fluoro-4-(5-phenyl-1,2,4-oxadiazol-3-yl)phenoxy]propyl}-1-piperazinyl)-1-methyl-2-oxoethyl]-2-thiophenecarboxamide] had a Ki of 4.98 nM.
For `C[C@@H](NC(=O)c1ccco1)C(=O)N1CCCN(CCCOc2ccc(-c3noc(-c4cccs4)n3)c(F)c2)CC1` [Example 148, N-{(1R)-2-[4-(3-{3-fluoro-4-[5-(2-thienyl)-1,2,4-oxadiazol-3-yl]phenoxy}propyl)-1,4-diazepan-1-yl]-1-methyl-2-oxoethyl}-2-furamide], the Ki was found to be 3.94 nM.

The record behind these values is patent publication US6559140B2 (Abbott Laboratories, priority 2000, dated 2003).
